Laboratory results published in patent US20230250066A1, “HERBICIDAL CINNOLINE DERIVATIVES” (SYNGENTA CROP PROTECTION AG, priority 2020, published 2023).

Legend:
Type in all cases: in vivo
[1] = system: Amaranthus retoflexus (AMARE); assay: Pre-emergence herbicidal test; details: 1000 g/ha, evaluated after 13 days
Setaria faberi (SETFA) [2] = assay: Pre-emergence herbicidal test; details: 1000 g/ha, evaluated after 13 days
[3] = system: Echinochloa crus-galli (ECHCG); assay: Pre-emergence herbicidal test; details: 1000 g/ha, evaluated after 13 days
[4] = system: Ipomoea hederacea (IPOHE); assay: Pre-emergence herbicidal test; details: 1000 g/ha, evaluated after 13 days
[5] = system: Abutilon theophrasti (ABUTH); assay: Pre-emergence herbicidal test; details: 1000 g/ha, evaluated after 13 days
Zea mays (ZEAMX) [6] = assay: Pre-emergence herbicidal test; details: 1000 g/ha, evaluated after 13 days
[7] = system: Abutilon theophrasti (ABUTH); assay: Post-emergence herbicidal test; details: 1000 g/ha unless otherwise stated, evaluated after 13 days
Summary of the method: (§1)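 Spray-applied at 1000 g/ha unless stated, in the glasshouse. Damage rated 13 days later on a 0–5 scale.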

[8] = system: Amaranthus retoflexus (AMARE); assay: Post-emergence herbicidal test; details: 1000 g/ha unless otherwise stated, evaluated after 13 days
Summary of the method: as §1

[9] = system: Echinochloa crus-galli (ECHCG); assay: Post-emergence herbicidal test; details: 1000 g/ha unless otherwise stated, evaluated after 13 days
Summary of the method: as §1

[10] = system: Ipomoea hederacea (IPOHE); assay: Post-emergence herbicidal test; details: 1000 g/ha unless otherwise stated, evaluated after 13 days
Summary of the method: as §1

Setaria faberi (SETFA) [11] = assay: Post-emergence herbicidal test; details: 1000 g/ha unless otherwise stated, evaluated after 13 days
Summary of the method: as §1

Zea mays (ZEAMX) [12] = assay: Post-emergence herbicidal test; details: 1000 g/ha unless otherwise stated, evaluated after 13 days
Summary of the method: as §1

| SMILES | percentage damage caused to the plant, five-point scale, AMARE [1] | percentage damage caused to the plant, five-point scale, SETFA (Setaria faberi (SETFA) [2]) | percentage damage caused to the plant, five-point scale, ECHCG [3] | percentage damage caused to the plant, five-point scale, IPOHE [4] | percentage damage caused to the plant, five-point scale, ABUTH [5] | percentage damage caused to the plant, five-point scale, ZEAMX (Zea mays (ZEAMX) [6]) | percentage damage caused to the plant, ABUTH (five-point scale) [7] | percentage damage caused to the plant, AMARE (five-point scale) [8] | percentage damage caused to the plant, ECHCG (five-point scale) [9] | percentage damage caused to the plant, IPOHE (five-point scale) [10] | percentage damage caused to the plant, SETFA (five-point scale) (Setaria faberi (SETFA) [11]) | percentage damage caused to the plant, ZEAMX (five-point scale) (Zea mays (ZEAMX) [12]) |
| --- | --- | --- | --- | --- | --- | --- | --- | --- | --- | --- | --- | --- |
| CCOC(=O)c1nn(-c2ccc(OC(F)(F)F)cc2)c2cccc([S+]([O-])C3CC3)c2c1=O (stereo not drawn) [Compound P32, ethyl 5-cyclopropylsulfinyl-4-oxo-1-[4-(trifluoromethoxy)phenyl]cinnoline-3-carboxylate] | 0 (0=0%) | 2 (2=21-40%) | 1 (1=10-20%) | 0 (0=0%) | 0 (0=0%) | 0 (0=0%) | 0 (0=0%) | 0 (0=0%) | 1 (1=10-20%) | 0 (0=0%) | 1 (1=10-20%) | 1 (1=10-20%) |
| CCOC(=O)c1nn(-c2ccc(OC(F)(F)F)cc2)c2cccc(SC3CC3)c2c1=O [Compound P33, ethyl 5-cyclopropylsulfanyl-4-oxo-1-[4-(trifluoromethoxy)phenyl]cinnoline-3-carboxylate] | 0 (0=0%) | 2 (2=21-40%) | 1 (1=10-20%) | 0 (0=0%) | 0 (0=0%) | 0 (0=0%) | 1 (1=10-20%) | 0 (0=0%) | 0 (0=0%) | 0 (0=0%) | 0 (0=0%) | 0 (0=0%) |
| CCOC(=O)c1nn(-c2ccc(OC(F)(F)F)cc2)c2cccc(S(=O)(=O)C3CC3)c2c1=O [Compound P34, ethyl 5-cyclopropylsulfonyl-4-oxo-1-[4-(trifluoromethoxy)phenyl]cinnoline-3-carboxylate] | 0 (0=0%) | 0 (0=0%) | 0 (0=0%) | 0 (0=0%) | 0 (0=0%) | 0 (0=0%) | 0 (0=0%) | 0 (0=0%) | 0 (0=0%) | 0 (0=0%) | 0 (0=0%) | 0 (0=0%) |
| O=C(O)c1nn(-c2ccc(OC(F)(F)F)cc2)c2cccc(S(=O)(=O)CC(F)(F)F)c2c1=O [Compound P35, 4-oxo-5-(2,2,2-trifluoroethylsulfonyl)-1-[4-(trifluoromethoxy)phenyl]cinnoline-3-carboxylic acid] | 0 (0=0%) | 0 (0=0%) | 0 (0=0%) | 0 (0=0%) | 1 (1=10-20%) | 1 (1=10-20%) | 1 (1=10-20%) | 1 (1=10-20%) | 1 (1=10-20%) | 0 (0=0%) | 2 (2=21-40%) | 1 (1=10-20%) |
| O=C(O)c1nn(-c2ccc(OC(F)(F)F)cc2)c2cccc([S+]([O-])CC(F)(F)F)c2c1=O (stereo not drawn) [Compound P37, 4-oxo-5-(2,2,2-trifluoroethylsulfinyl)-1-[4-(trifluoromethoxy)phenyl]cinnoline-3-carboxylic acid] | 0 (0=0%) | 0 (0=0%) | 0 (0=0%) | 0 (0=0%) | 1 (1=10-20%) | 0 (0=0%) | 1 (1=10-20%) | 0 (0=0%) | 1 (1=10-20%) | 1 (1=10-20%) | 1 (1=10-20%) | 1 (1=10-20%) |
| CCOC(=O)c1nn(-c2ccc(OC(F)(F)F)cc2)c2cccc([S+]([O-])CC(F)(F)F)c2c1=O (stereo not drawn) [Compound P38, ethyl 4-oxo-5-(2,2,2-trifluoroethylsulfinyl)-1-[4-(trifluoromethoxy)phenyl]cinnoline-3-carboxylate] | 0 (0=0%) | 0 (0=0%) | 0 (0=0%) | 0 (0=0%) | 0 (0=0%) | 0 (0=0%) | 1 (1=10-20%) | 1 (1=10-20%) | 0 (0=0%) | 0 (0=0%) | 1 (1=10-20%) | 1 (1=10-20%) |
| CCOC(=O)c1nn(-c2ccc(OC(F)(F)F)cc2)c2cccc(SCC(F)(F)F)c2c1=O [Compound P39, ethyl 4-oxo-5-(2,2,2-trifluoroethylsulfanyl)-1-[4-(trifluoromethoxy)phenyl]cinnoline-3-carboxylate] | 1 (1=10-20%) | 0 (0=0%) | 0 (0=0%) | 0 (0=0%) | 0 (0=0%) | 0 (0=0%) | 1 (1=10-20%) | 0 (0=0%) | 0 (0=0%) | 1 (1=10-20%) | 0 (0=0%) | 1 (1=10-20%) |
| CCOC(=O)c1nn(-c2ccc(OC(F)(F)F)cc2)c2cccc(S(=O)(=O)CC(F)(F)F)c2c1=O [Compound P40, ethyl 4-oxo-5-(2,2,2-trifluoroethylsulfonyl)-1-[4-(trifluoromethoxy)phenyl]cinnoline-3-carboxylate] | 0 (0=0%) | 1 (1=10-20%) | 0 (0=0%) | 0 (0=0%) | 1 (1=10-20%) | 1 (1=10-20%) | 1 (1=10-20%) | 1 (1=10-20%) | 1 (1=10-20%) | 0 (0=0%) | 1 (1=10-20%) | 1 (1=10-20%) |
| CS(=O)(=O)c1cccc2c1c(=O)c(C(=O)O)nn2-c1ccc(Cl)cc1F [Compound P41, 1-(4-chloro-2-fluoro-phenyl)-5-methylsulfonyl-4-oxo-cinnoline-3-carboxylic acid] | 1 (1=10-20%) | 4 (4=61-80%) | 2 (2=21-40%) | 1 (1=10-20%) | 1 (1=10-20%) | 1 (1=10-20%) | 1 (1=10-20%) | 1 (1=10-20%) | 4 (4=61-80%) | 1 (1=10-20%) | 4 (4=61-80%) | 1 (1=10-20%) |
